From patent publication US10106508B2, “Quinazoline heterocyclic compound as EGFR kinase inhibitor and preparation and application thereof” (BEIJING SCITECH-MQ PHARMACEUTICALS LIMITED, priority 2015, dated 2018)

Tests used:
H358 cells = assay: Anti-proliferative activity, cell-counting kit-8 assay, H358; assay type: cell-based; conditions: CCK-8
Experimental: (§1) Cell Assay of EGFR Activity
(§2) The anti-proliferative activity was determined using cell-counting kit-8 assay (Dojindo, Japan). H358 and A549 cells lines were seeded at a density of 8000 cells/well and 3000 cells/well respectively in 96-well microtiter plates and were incubated at 37° C. overnight in a humidified incubator containing 5% CO2. Cells were dosed with compounds at final concentrations ranging from 0.025 to 80 μM in each well of the plate. Three groups were set up, including compound group to be tested, blank control group, positive control group (gefitinib).
(§3) The 96-well plate was incubated in cell incubator for 72 hours. The culture fluid was then removed and 100 μl/well of PBS buffer was added. 10 μl/well of CCK-8 solution was added and the assay plate was incubated in the cell incubator for 1 hour. Cell survival was determined by measuring the absorbance at 470 nm using a microplate reader. A calibration curve was prepared using the average data of the 4 wells for each concentration that contain the number of viable cells to determine the IC50 of the target compounds.

A549 cells = assay: Anti-proliferative activity, cell-counting kit-8 assay, A549; assay type: cell-based; conditions: CCK-8
Experimental: as §1, §2, §3

EGFR (WT) = EGFR (WT) (Homo sapiens (Human), UniProt P00533); assay: Kinase-Glo luminescent kinase assay, EGFR tyrosine kinase inhibitory activity (WT); assay type: biochemical; conditions: EGFR wild type
Experimental: (§4) Determination of the Compound Inhibitory Activity Against EGFR Kinase
(§5) The inhibitory activity of compounds in formula (I) and (II) were determined using Kinase-Glo luminescent kinase assay. The receptor tyrosine kinase EGFR was tested and Gefitinib, a known EGFR inhibitor, was chosen as the positive control compound. The method is detailed below:
(§6) The sample compounds were dissolved in DMSO and diluted it to 500 μM concentration with DMSO and transferred to a dose plate. The compounds were serially diluted with DMSO in 5 fold concentration. Then each concentration was diluted 10-fold with the reaction buffer to get a 10× final concentration. Transfer the compounds with concentrations ranging from 0.003 μM to 50 μM to EGFR assay plate to determine their kinase activity with a dose of 1 μL/well.
(§7) The positive control compound Gifitinib was dissolved in DMSO as 10 mM stock solution and diluted it to 100 μM concentration with DMSO. The control compound was serially diluted with DMSO in 5 fold concentration. Then each concentration was diluted 10-fold with the reaction buffer to get a 10× final concentration.
(§8) For the HPE (hundred percent effect: No kinase and no compound, but containing ATP, substrate and 1% DMSO) and ZPE (zero percent effect: No compound but containing kinase, ATP, substrate and 1% DMSO) wells, dilute 2 μL DMSO 10-fold with reaction buffer to obtain 10% DMSO solution. Then transfer it to the assay plat, 1 μL/well. The positive control wells contain kinase, ATP, substrate and positive control compound in different concentrations. The sample compound wells contain kinase, ATP, substrate and the compounds to be tested in different concentrations.
(§9) Preparation of the reagents in need: 4×ATP: dilute ATP 4 times with assay buffer to obtain a working solution; 4× substrate: dilute Poly ([…]: tyrosine) 4 times with assay buffer to obtain a working solution; 2.5×EGFR kinase: dilute EGFR kinase 2.5 times with assay buffer to obtain a working solution.
(§10) Kinase reaction: Add 10× compounds to the assay plate in a 384-well plate layout, 1 μL/well. For the HPE and ZPE wells, equal volume (1 μL/well) of 10% DMSO was added to the 384-well assay plate; Add 2.5×EGFR kinase into the assay plate in 384-well plate layout, 4 μL/well. For HPE and ZPE wells, an equal volume (4 μL/well) of assay buffer was added to the 384-well assay plate; Centrifuge the assay plate with 1000 rpm for 1 min to mix them; Pre-incubate the assay plate for 30 min at 30° C.; Mix equal volume of 4×ATP and 4× substrate to obtain 2×ATP-substrate mixture which serves as a reaction mixture for the determination of EGFR activity; Add 2×ATP-substrate mixture to the assay plate, 5 μL/well; Centrifuge the assay plate at 1000 rpm for 1 min to mix them; Incubate the assay plate for one hour at 30° C.; Add Kinase glo plus was to each well (10 μL/well), and then incubated the assay plate for 20 min at 27° C.; Read luminescence signal with Envision plate reader.

EGFR (T790M) = EGFR (T790M) (Homo sapiens (Human), UniProt P00533, T790M); assay: Kinase-Glo luminescent kinase assay, EGFR tyrosine kinase inhibitory activity (T790M); assay type: biochemical
Experimental: as §4, §5, §6, §7, §8, §9, §10

[1] = in vivo; cited from earlier work
EGFR = EGFR (Homo sapiens (Human), UniProt P00533); conditions: molecular level; read-out: IC50 against EGFR activity; cited from earlier work
remaining 81 kinase = conditions: screening of 85 kinases; selectively inhibits EGFR and 3 other mutants; cited from earlier work

EGFR (WT), sequence (P00533 25-1210): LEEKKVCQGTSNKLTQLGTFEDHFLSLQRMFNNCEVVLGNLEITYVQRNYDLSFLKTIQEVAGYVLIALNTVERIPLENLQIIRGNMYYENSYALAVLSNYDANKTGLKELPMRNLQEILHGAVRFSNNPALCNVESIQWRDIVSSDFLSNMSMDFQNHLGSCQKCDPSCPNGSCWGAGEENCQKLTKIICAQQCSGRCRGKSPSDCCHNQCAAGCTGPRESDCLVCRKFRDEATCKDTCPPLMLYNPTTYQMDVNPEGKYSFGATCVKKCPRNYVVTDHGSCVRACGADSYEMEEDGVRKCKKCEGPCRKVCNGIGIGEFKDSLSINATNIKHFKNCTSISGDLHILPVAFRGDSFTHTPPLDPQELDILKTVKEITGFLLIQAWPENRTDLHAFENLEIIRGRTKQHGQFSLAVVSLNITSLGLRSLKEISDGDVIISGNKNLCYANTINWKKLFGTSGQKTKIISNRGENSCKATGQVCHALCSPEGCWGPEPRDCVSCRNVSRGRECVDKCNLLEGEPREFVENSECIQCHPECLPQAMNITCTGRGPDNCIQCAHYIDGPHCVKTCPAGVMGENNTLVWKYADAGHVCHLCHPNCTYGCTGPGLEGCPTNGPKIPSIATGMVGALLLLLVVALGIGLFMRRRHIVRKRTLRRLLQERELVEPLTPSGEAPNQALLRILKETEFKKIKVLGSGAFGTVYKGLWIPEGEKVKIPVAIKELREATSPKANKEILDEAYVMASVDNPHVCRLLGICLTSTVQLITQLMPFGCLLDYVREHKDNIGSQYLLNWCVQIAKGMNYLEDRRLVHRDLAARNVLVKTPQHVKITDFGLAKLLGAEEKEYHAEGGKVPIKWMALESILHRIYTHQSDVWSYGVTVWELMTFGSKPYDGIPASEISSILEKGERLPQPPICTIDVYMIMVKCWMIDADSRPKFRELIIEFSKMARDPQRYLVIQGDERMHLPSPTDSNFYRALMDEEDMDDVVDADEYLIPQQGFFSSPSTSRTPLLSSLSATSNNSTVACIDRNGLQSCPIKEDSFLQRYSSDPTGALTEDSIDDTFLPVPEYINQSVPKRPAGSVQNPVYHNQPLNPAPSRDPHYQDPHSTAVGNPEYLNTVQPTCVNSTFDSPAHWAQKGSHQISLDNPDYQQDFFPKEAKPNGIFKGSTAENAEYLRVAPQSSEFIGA
EGFR (T790M), sequence (P00533 25-1210 T790M): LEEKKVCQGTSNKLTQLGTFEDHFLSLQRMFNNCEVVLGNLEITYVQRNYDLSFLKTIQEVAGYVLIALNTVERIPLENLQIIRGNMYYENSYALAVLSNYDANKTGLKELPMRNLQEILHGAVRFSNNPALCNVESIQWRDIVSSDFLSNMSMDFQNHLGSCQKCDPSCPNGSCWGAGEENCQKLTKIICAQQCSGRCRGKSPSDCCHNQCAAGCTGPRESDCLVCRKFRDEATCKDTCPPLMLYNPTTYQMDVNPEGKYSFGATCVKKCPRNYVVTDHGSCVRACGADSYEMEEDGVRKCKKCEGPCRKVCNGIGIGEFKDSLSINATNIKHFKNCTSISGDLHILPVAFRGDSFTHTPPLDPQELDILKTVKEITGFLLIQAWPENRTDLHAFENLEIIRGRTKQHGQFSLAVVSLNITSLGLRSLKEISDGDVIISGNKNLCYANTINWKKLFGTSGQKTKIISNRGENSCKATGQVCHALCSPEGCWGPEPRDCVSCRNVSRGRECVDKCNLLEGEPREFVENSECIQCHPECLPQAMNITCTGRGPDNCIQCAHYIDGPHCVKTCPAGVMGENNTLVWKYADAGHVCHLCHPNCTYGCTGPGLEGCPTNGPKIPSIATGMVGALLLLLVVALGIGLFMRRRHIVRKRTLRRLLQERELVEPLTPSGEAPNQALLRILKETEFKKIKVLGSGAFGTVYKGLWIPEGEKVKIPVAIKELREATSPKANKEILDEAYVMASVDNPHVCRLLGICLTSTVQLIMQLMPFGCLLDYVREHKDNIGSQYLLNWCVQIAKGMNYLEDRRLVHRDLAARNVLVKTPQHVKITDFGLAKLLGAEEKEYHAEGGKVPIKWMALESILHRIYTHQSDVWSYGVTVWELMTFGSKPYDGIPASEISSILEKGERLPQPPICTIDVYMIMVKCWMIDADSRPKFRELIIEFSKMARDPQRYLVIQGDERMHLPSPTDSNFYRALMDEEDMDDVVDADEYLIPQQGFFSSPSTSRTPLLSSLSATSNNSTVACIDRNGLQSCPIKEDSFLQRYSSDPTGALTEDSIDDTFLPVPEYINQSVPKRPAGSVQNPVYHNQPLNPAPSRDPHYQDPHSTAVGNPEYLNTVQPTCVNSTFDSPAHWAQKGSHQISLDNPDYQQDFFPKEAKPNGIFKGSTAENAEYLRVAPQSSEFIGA
EGFR, sequence (P00533 25-1210): as the sequence (P00533 25-1210) above

| SMILES | IC50 (H358 cells; Homo sapiens, NCI-H358, 72 h) [µM] | IC50 (A549 cells; Homo sapiens, A549, 72 h) [µM] | IC50 (EGFR (WT)) [nM] | IC50 (EGFR (T790M)) [nM] | IC50 (H358 cells; 72 hours) [µM] | IC50 (A549 cells; 72 hours) [µM] | oral bioavailability [1] [%] | IC50 (EGFR) [µM] | effect on the remaining 81 kinase (remaining 81 kinase) |
| --- | --- | --- | --- | --- | --- | --- | --- | --- | --- |
| CCOc1cc2ncnc(Nc3ccc(C)c(Cl)c3)c2c2c1OCCO2 [Compound I-37, N-(3-Chloro-4-methylphenyl)-5-ethoxy-2,3-dihydro-[1,4]dioxino[2,3-f]quinazolin-10-amine] | 11.6 | 12.1 | < 50 | < 50 | – | – | – | – | – |
| COCCOc1cc2ncnc(Nc3cccc(OC)c3)c2c2c1OCCO2 [Compound I-33, 5-(2-Methoxyethoxy)-N-(3-methoxyphenyl)-2,3-dihydro-[1,4]dioxino[2,3-f]quinazolin-10-amine] | 9.64 | 12.1 | < 200 | < 1000 | – | – | – | – | – |
| COCC(C)Oc1cc2ncnc(Nc3ccc(F)c(Cl)c3)c2c2c1OCCO2 (stereo not drawn) [Compound I-25, N-(3-Chloro-4-fluorophenyl)-5-(1-methoxypropan-2-yloxy)-2,3-dihydro-[1,4]dioxino[2,3-H]quinazolin-10-amine] | 10.6 | 10.4 | – | – | – | – | – | – | – |
| C#Cc1cccc(Nc2ncnc3cc(OCC)c4c(c23)OCCO4)c1 [Compound I-35, 5-Ethoxy-N-(3-ethynylphenyl)-2,3-dihydro-[1,4]dioxino[2,3-f]quinazolin-10-amine] | 8.89 | 10.5 | < 50 | < 50 | – | – | – | – | – |
| Fc1cc(Nc2ncnc3cc(OC4CCOCC4)c4c(c23)OCCO4)ccc1Cl [Compound I-22, N-(4-Chloro-3-fluorophenyl)-5-(tetrahydro-2H-pyran-4-yloxy)-2,3-dihydro-[1,4]dioxino[2,3-f]-quinazolin-10-amine] | > 20 | > 20 | < 100 | < 1000 | – | – | – | – | – |
| CCOC(C)Oc1cc2ncnc(Nc3ccc(F)c([N+](=O)[O-])c3)c2c2c1OCCO2 (stereo not drawn) [Compound I-16, 5-(1-Ethoxyethoxy)-N-(4-fluoro-3-nitrophenyl)-2,3-dihydro-[1,4]dioxino[2,3-f]quinazolin-10-amine] | 17.5 | 17.5 | < 300 | < 300 | – | – | – | – | – |
| C#Cc1cccc(Nc2ncnc3cc(OC4CCOC4)c4c(c23)OCCO4)c1 (stereo not drawn) [Compound I-24, N-(3-Ethynylphenyl)-5-(tetrahydrofuran-3-yloxy)-23-dihydro-[1,4]dioxino[2,3-f]quinazolin-10-amine] | 8.58 | 9.69 | < 50 | < 300 | – | – | – | – | – |
| C#Cc1cccc(Nc2ncnc3cc(OCC4CCCO4)c4c(c23)OCCO4)c1 (stereo not drawn) [Compound I-41, N-(3-Ethynylphenyl)-5-((tetrahydrofuran-2-yl)methoxy)-2,3-dihydro-[1,4]dioxino[2,3-f]quinazolin-10-amine] | 9.51 | 11.5 | < 50 | < 100 | – | – | – | – | – |
| Fc1cc(Nc2ncnc3cc(OC4CCOC4)c4c(c23)OCCO4)ccc1Cl (stereo not drawn) [Compound I-23, N-(4-Chloro-3-fluorophenyl)-5-(tetrahydrofuran-3-yloxy)-2,3-dihydro-[1,4]dioxino[2,3-f]quinazolin-10-amine] | 13 | 15.1 | < 50 | < 100 | – | – | – | – | – |
| O=C1COc2cc3ncnc(Nc4ccc(F)c(Cl)c4)c3cc2N1CCCN1CCOCC1 [II-1, 4-((3-Chloro-4-fluorophenyl)amino)-6-(3-morpholinopropyl)-6H-[1,4]oxazino[3,2-g]quinazolin-7(8H)-one] | – | – | < 50 | < 300 | 13.5 | 7.51 | – | – | – |
| C#Cc1cccc(Nc2ncnc3cc(OCCOC)c(OCCOC)cc23)c1 [erlotinib, Erlotinib] | – | – | – | – | – | – | 80 | – | – |
| C#Cc1cccc(Nc2ncnc3cc4c(cc23)OCCOCCOCCO4)c1 [icotinib, Icotinib] | – | – | – | – | – | – | – | 5 | no significant effect |
| O=C1COc2cc3ncnc(Nc4ccc(F)c(Cl)c4)c3cc2N1CCCN1CCOCC1 [II-2, 4-((3-Chloro-4-fluorophenyl)amino)-6-(3-morpholinopropyl)-6H-[1,4]oxazino[3,2-g]quinazolin-7(8H)-one] | 13.5 | 5.58 | < 200 | < 1000 | – | – | – | – | – |

The remaining compounds from weak to strong by IC50 (H358 cells; Homo sapiens, NCI-H358, 72 h), led by results:

| IC50 (H358 cells; Homo sapiens, NCI-H358, 72 h) [µM] | IC50 (A549 cells; Homo sapiens, A549, 72 h) [µM] | IC50 (EGFR (WT)) [nM] | IC50 (EGFR (T790M)) [nM] | SMILES | IC50 (H358 cells; 72 hours) [µM] | IC50 (A549 cells; 72 hours) [µM] | oral bioavailability [1] [%] | IC50 (EGFR) [µM] | effect on the remaining 81 kinase (remaining 81 kinase) |
| --- | --- | --- | --- | --- | --- | --- | --- | --- | --- |
| 7.41 | 12 | < 50 | < 50 | CCOc1cc2ncnc(Nc3cccc(OC)c3)c2c2c1OCCO2 [Compound I-36, 5-Ethoxy-N-(3-methoxyphenyl)-2,3-dihydro-[1,4]dioxino[2,3-f]quinazolin-10-amine] | – | – | – | – | – |
| 6.92 | 11.6 | < 50 | < 50 | CC(C)Oc1cc2ncnc(Nc3ccc(F)c(Cl)c3)c2c2c1OCCO2 [Compound I-7, N-(3-Chloro-4-fluorophenyl)-5-isopropoxy-2,3-dihydro-[1,4]dioxino[2,3-f]quinazolin-10-amine] | – | – | – | – | – |
| 6.1 | 10.2 | < 50 | < 100 | CCOc1cc2ncnc(Nc3ccc(C)cc3)c2c2c1OCCO2 [Compound I-39, 5-Ethoxy-N-p-tolyl-2,3-dihydro-[1,4]dioxino[2,3-f]quinazolin-10-amine] | – | – | – | – | – |
| 5.93 | 13.9 | < 50 | < 50 | COCCOc1cc2ncnc(Nc3ccc(F)c(Cl)c3)c2c2c1OCCO2 [Compound I-30, N-(3-Chloro-4-fluorophenyl)-5-(2-methoxyethoxy)-2,3-dihydro-[1,4]dioxino[2,3-f]quinazolin-10-amine] | – | – | – | – | – |
| 5.54 | 6.08 | < 50 | < 50 | C#Cc1cccc(Nc2ncnc3cc(OC(C)C)c4c(c23)OCCO4)c1 [Compound I-8, N-(3-Ethynylphenyl)-5-isopropoxy-2,3-dihydro-[1,4]dioxino[2,3-f]quinazolin-10-amine] | – | – | – | – | – |
| 1.47 | 6.42 | < 100 | < 1000 | C#Cc1cccc(Nc2ncnc3cc(OC4CCOCC4)c4c(c23)OCCO4)c1 [Compound I-21, N-(3-Ethynylphenyl)-5-(tetrahydro-2H-pyran-4-yloxy)-2,3-dihydro-[1,4]dioxino[2,3-f]quinazolin-10-amine] | – | – | – | – | – |
